What was measured:
[1] = Storage stability of radioactive glyceryl glyphosate; assay type: physicochemical; conditions: radioactive compound stored at -20° C. over a period of 3 months
[2] = test system: E. coli MM294, JM101, JM101/MPU+, SR200/MPU crude extract; test: In vitro radioactive hydrolysis assay in crude extracts; assay type: biochemical; conditions: E. coli strains
Excerpt: (§1) The enzymatic reaction can be assayed using labelled (3-^14 C-) glyceryl glyphosate as a substrate and following the conversion to (3-^14 C-)glyphosate as a product using a high pressure liquid chromatography system with a radioactive detector. This assay is the most specific for the phosphonate monoester hydrolase enzymes useful for conditional cell lethality. An enzyme assay consists of 40,000 cpm of labelled (3-^14 C-) glyceryl glyphosate (obtained from NEN Biochemicals), the PEH sample in buffer and buffer to 100 μl final volume. The assay buffer is 10 mM Bis-Tris propane, pH 9.0, plus 100 mM KCl. The reaction is run for 1 hour at 30° C. and then stopped by the addition of 100 μl "quench" which is 100 mM sodium acetate, pH 5.5, in ethanol. The denatured protein is then spun down at 10,000 rpm in a microfuge and the supernatant transferred to an HPLC injection vial. A 100 μl aliquot is then injected onto an Synchropac AX100 anion exchange column 4.6×250 mm) pre-equilibrated in 65 mM potassium phosphate buffer, pH 5.5. The radioactive compounds are eluted isocratically for 15 min at 1 ml/min. The radioactivity of the peaks is measured and integrated by a post-column detector. Typically, the substrate elutes at 4.9 min and the product, glyphosate, at 9.7 min providing baseline separation. […] Alternatively, blank reactions can be included to determine the preexisting glyphosate contamination.
(§2) Bacteria which grew in this medium using glyceryl glyphosate as a sole phosphate source had the ability to cleave both the ester and the phosphonate bond to release the free phosphate. For these bacteria to be useful in the present invention, the first step in the mineralization of glyceryl glyphosate needed is the hydrolysis of the phosphonate ester. Each of the three bacteria which utilized glyceryl glyphosate as a phosphate source were then assayed for a phosphonate monoester hydrolase activity using an in vivo (3-^14 C-) glyceryl glyphosate assay. A 150 ml culture of each bacteria was grown in DF minimal medium with 0.2 mM HK2 PO4 as a phosphate source in a 500 ml flask, 30° C., with shaking. The bacteria were pelleted by centrifugation at 5,000×g for 10 min and resuspended at 10 mg fresh weight/ml. An assay mix included 50 μl cells plus 10 μl (3-^14 C-) glyceryl glyphosate (10,000 cpm/μl) and kept at 30° C. with shaking. After a three hour incubation period, the cells were pelleted in a microfuge and the supernatant injected onto an HPLC anion exchange column and glyphosate analyzed as described above. The pellet was washed twice with 1 ml 10 mM HEPES, pH 7.0, and resuspended in 25 μl buffer. The cells were lysed with 25 μl quench and the debris pelleted in a microfuge. The pellet extract was then analyzed for glyphosate product as described above. […]

[3] = test system: T12 crude extract; test: as above; assay type: biochemical; conditions: strain T12
Excerpt: as §1, §2

[4] = test system: LBAA crude extract; test: as above; assay type: biochemical; conditions: strain LBAA
Excerpt: as §1, §2

[5] = test system: T10 crude extract; test: as above; assay type: biochemical; conditions: strain T10
Excerpt: as §1, §2

[6] = test system: LBAA; test: Growth on glyceryl glyphosate as sole phosphate source; assay type: cell-based; conditions: strain LBAA; 0.2 mM in DF minimal medium
Protocol: (§3) Bacteria capable of degrading glyphosate are known (Hallas et al., 1988; Malik et al., 1989; and Moore et al., 1983; Heitkamp et al., 1990). Five of these bacteria (PG2482, LBAA, T10, T12 and CP4) and four strains of E. coli were screened for the rapid degradation of glyceryl glyphosate into inorganic phosphate. The bacteria were inoculated into 2 ml Dworkin-Foster(DF) minimal medium containing glucose, sodium gluconate and potassium citrate (each 0.1%) as carbon source and containing 0.2 mM glyceryl glyphosate as a phosphate source. The Dworkin-Foster minimal medium was made by combining 1 liter sterile H2 O with 1 ml each of A, B, C, E and F, 10 ml D, C-sources to final concentration of 0.1% each and P-source to 0.2 mM.
(§4) Bacteria which grew in this medium using glyceryl glyphosate as a sole phosphate source had the ability to cleave both the ester and the phosphonate bond to release the free phosphate. For these bacteria to be useful in the present invention, the first step in the mineralization of glyceryl glyphosate needed is the hydrolysis of the phosphonate ester. Each of the three bacteria which utilized glyceryl glyphosate as a phosphate source were then assayed for a phosphonate monoester hydrolase activity using an in vivo (3-^14 C-) glyceryl glyphosate assay. A 150 ml culture of each bacteria was grown in DF minimal medium with 0.2 mM HK2 PO4 as a phosphate source in a 500 ml flask, 30° C., with shaking. The bacteria were pelleted by centrifugation at 5,000×g for 10 min and resuspended at 10 mg fresh weight/ml. An assay mix included 50 μl cells plus 10 μl (3-^14 C-) glyceryl glyphosate (10,000 cpm/μl) and kept at 30° C. with shaking. After a three hour incubation period, the cells were pelleted in a microfuge and the supernatant injected onto an HPLC anion exchange column and glyphosate analyzed as described above. The pellet was washed twice with 1 ml 10 mM HEPES, pH 7.0, and resuspended in 25 μl buffer. The cells were lysed with 25 μl quench and the debris pelleted in a microfuge. The pellet extract was then analyzed for glyphosate product as described above. Glyphosate was found in the pellet extracts of these three bacteria indicating the presence of a phosphonate monoester hydrolase activity in these organisms.

[7] = test system: CP4; test: as above; assay type: cell-based; conditions: strain CP4; 0.2 mM in DF minimal medium
Protocol: as §3, §4

[8] = test system: E. coli MM294, JM101, JM101/MPU+, SR200/MPU; test: as above; assay type: cell-based; conditions: E. coli strains; 0.2 mM in DF minimal medium
Protocol: as §3, §4

[9] = test system: T12; test: as above; assay type: cell-based; conditions: strain T12; 0.2 mM in DF minimal medium
Protocol: as §3, §4

[10] = test system: T10; test: as above; assay type: cell-based; conditions: strain T10; 0.2 mM in DF minimal medium
Protocol: as §3, §4

Structure (SMILES): O=C(O)CNCP(=O)(O)OCC(O)CO (stereo not shown) [glyceryl glyphosate, glycine, N-([hydroxy (2,3 dihydroxy propoxy)phosphonyl]methyl)]
- Storage stability [1]: unstable
- Hydrolysis of Glyceryl Glyphosate into Glyphosate in Crude Extracts [2]: No
- Hydrolysis of Glyceryl Glyphosate into Glyphosate in Crude Extracts [3]: Yes
- Hydrolysis of Glyceryl Glyphosate into Glyphosate in Crude Extracts [4]: Yes
- Hydrolysis of Glyceryl Glyphosate into Glyphosate in Crude Extracts [5]: No
- Glyceryl Glyphosate as Phosphate Source [6]: Yes
- Glyceryl Glyphosate as Phosphate Source [7]: No
- Glyceryl Glyphosate as Phosphate Source [8]: No
- Glyceryl Glyphosate as Phosphate Source [9]: No
- Glyceryl Glyphosate as Phosphate Source [10]: Yes

Reference: US5254801A, “Heterologous dominant conditional lethal gene which is a phosphonate monoester hydrolase and use thereof in plants” (Monsanto Company, priority 1990, dated 1993)
